From patent US20230091047A1 (priority 2019, published 2023) come the findings set out here.

Data set [1] has as its system HBV (HepG2.117 cell line, inducibly HBV producing). The data set is described as follows: Anti-HBV activity: intracellular HBV DNA by real-time PCR in HepG2.117 cells after 3 days of treatment. The format is cell-based, hepatitis B virus. The settings on record: Hepatitis B virus, HepG2.117, 72 h, HepG2.117 cells, 3 days of treatment, intracellular HBV DNA by real-time PCR; mean value; read-out: EC50 (μM, mean value). In outline: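 Antiviral effect is expressed through intracellular HBV DNA levels, determined by real-time PCR with a virus-specific probe. These levels were measured after 3 days of treatment with compound dilutions, in HepG2.117 cells induced to replicate HBV.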
Background: Quantitative PCR measures a nucleic acid by following its amplification.

A short description of another data set: in vitro. To be noted: human, HepG2 or HepG2.117 cells, 3-days incubation (unmarked values), ATPlite; mean value. The format is cell-based. In outline: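 Luminescent ATP quantitation served as the viability endpoint following a 3- or 4-day incubation with test compounds.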
For orientation: In ATP-based viability assays light output follows the ATP content of the culture.

As for `COc1ccc(CNc2nc3c(c(=O)n2-c2cccc(C(=O)O)c2)CCN(C(=O)c2ccc(Cl)c(Cl)c2)C3)cc1` [Compound C75, 3-[7-(3,4-dichlorobenzoyl)-2-{[(4-methoxyphenyl)methyl]amino}-4-oxo-5,6,7,8-tetrahydropyrido[3,4-d]pyrimidin-3(4H)-yl]benzoic acid], the EC50 in data set [1] is over 50 µM. Moreover, the cytotoxic concentration (CC50) at 3 days in the data set “in vitro” was over 50 µM.

`COc1ccc(Cn2c(N)nc3c(c2=O)CCN(C(=O)c2ccc(Cl)c(Cl)c2)C3)cc1` [Compound C76, 2-amino-7-(3,4-dichlorobenzoyl)-3-[(4-methoxyphenyl)methyl]-5,6,7,8-tetrahydropyrido[3,4-d]pyrimidin-4(3H)-one]: the EC50 in data set [1] turned out to be 9.63 µM. In the data set “in vitro”, this molecule had a cytotoxic concentration (CC50) at 3 days of 7.1 µM.

For the molecule `COc1ccc(CNc2nc3c(c(=O)n2-c2ccc(F)c(C#N)c2)CCN(C(=O)c2ccc(Cl)c(Cl)c2)C3)cc1` [Compound C77, 5-[7-(3,4-dichlorobenzoyl)-2-{[(4-methoxyphenyl)methyl]amino}-4-oxo-5,6,7,8-tetrahydropyrido[3,4-d]pyrimidin-3(4H)-yl]-2-fluorobenzonitrile], in data set [1], the EC50 worked out at 1.58 µM. The molecule further registered a CC50 at 3 days in the data set “in vitro” of over 50 µM.

Take `COc1ccc(CNc2nc3c(c(=O)n2-c2ccccn2)CCN(C(=O)c2ccc(Cl)c(Cl)c2)C3)cc1` [Compound C78, 7-(3,4-dichlorobenzoyl)-2-{[(4-methoxyphenyl)methyl]amino}-3-(pyridin-2-yl)-5,6,7,8-tetrahydropyrido[3,4-d]pyrimidin-4(3H)-one]: the EC50 in data set [1] worked out at 2.11 µM. The CC50 at 3 days in “in vitro” turned out to be 41.8 µM.

With `COc1ccc(CNc2nc3c(c(=O)[nH]2)CCN(C(=O)c2cc4ccc(Cl)cc4[nH]2)C3)cc1` [Compound C79, 7-(6-chloro-1H-indole-2-carbonyl)-2-{[(4-methoxyphenyl)methyl]amino}-5,6,7,8-tetrahydropyrido[3,4-d]pyrimidin-4(3H)-one], in data set [1], the EC50 amounted to 2.32 µM. In “in vitro”, this molecule gave a cytotoxic concentration (CC50) at 3 days of 37.5 µM.

For `COc1ccc(CNc2nc3c(c(=O)[nH]2)CCN(C(=O)c2ccc(Br)c(Br)c2)C3)cc1` [Compound C80, 7-(3,4-dibromobenzoyl)-2-{[(4-methoxyphenyl)methyl]amino}-5,6,7,8-tetrahydropyrido[3,4-d]pyrimidin-4(3H)-one], the 50% effective concentration (EC50) in data set [1] was 2.02 µM. In “in vitro”, the CC50 at 3 days is over 50 µM.

With `COc1ccc(CNc2nc3c(c(=O)[nH]2)CCN(C(=O)c2ccc4occc4c2)C3)cc1` [Compound C81, 7-(1-benzofuran-5-carbonyl)-2-{[(4-methoxyphenyl)methyl]amino}-5,6,7,8-tetrahydropyrido[3,4-d]pyrimidin-4(3H)-one], in data set [1], the concentration for a half-maximal effect (EC50) came to 4.49 µM. In addition, the half-maximal cytotoxic concentration (CC50) at 3 days in the data set “in vitro” is over 50 µM.

Consider `COc1ccc(CNc2nc3c(c(=O)[nH]2)CCN(C(=O)c2ccc(C#N)c(Cl)c2)C3)cc1` [Compound C82, 2-chloro-4-[2-{[(4-methoxyphenyl)methyl]amino}-4-oxo-4,5,6,8-tetrahydropyrido[3,4-d]pyrimidine-7(3H)-carbonyl]benzonitrile], for which the EC50 in data set [1] was determined as 23.4 µM. The molecule further came in with a CC50 at 3 days in “in vitro” of over 50 µM.

Turning to `COc1ccc(CNc2nc3c(c(=O)n2C2CCCN(S(C)(=O)=O)C2)CCN(C(=O)c2ccc(Cl)c(Cl)c2)C3)cc1` (stereo not drawn) [Compound C83, 7-(3,4-dichlorobenzoyl)-3-[1-(methanesulfonyl)piperidin-3-yl]-2-{[(4-methoxyphenyl)methyl]amino}-5,6,7,8-tetrahydropyrido[3,4-d]pyrimidin-4(3H)-one], the EC50 in data set [1] stood at 1.44 µM. In addition, the half-maximal cytotoxic concentration (CC50) at 3 days in the data set “in vitro” was over 50 µM.

On to `COc1ccc(CNc2nc3c(c(=O)n2-c2ccc(S(C)(=O)=O)cc2)CCN(C(=O)c2ccc(Cl)c(Cl)c2)C3)cc1` [Compound C84, 7-(3,4-dichlorobenzoyl)-3-[4-(methanesulfonyl)phenyl]-2-{[(4-methoxyphenyl)methyl]amino}-5,6,7,8-tetrahydropyrido[3,4-d]pyrimidin-4(3H)-one], for which the concentration for a half-maximal effect (EC50) in data set [1] amounted to 0.57 µM. The molecule also showed a CC50 at 3 days in the data set “in vitro” of over 50 µM.

For `CC(C)Nc1nc2c(c(=O)n1-c1ccc(S(C)(=O)=O)cc1)CCN(C(=O)c1ccc(Cl)c(Cl)c1)C2` [Compound C85, 7-(3,4-dichlorobenzoyl)-3-[4-(methanesulfonyl)phenyl]-2-[(propan-2-yl)amino]-5,6,7,8-tetrahydropyrido[3,4-d]pyrimidin-4(3H)-one], the 50% effective concentration (EC50) in data set [1] worked out at 0.85 µM. Also, the CC50 at 3 days in “in vitro” is over 50 µM.

Regarding `COc1ccccc1-n1c(N[C@@H](C)C(F)(F)F)nc2c(c1=O)CCN(C(=O)c1ccc(Cl)c(Cl)c1)C2` [Compound C86, 7-(3,4-dichlorobenzoyl)-3-(2-methoxyphenyl)-2-{[(2S)-1,1,1-trifluoropropan-2-yl]amino}-5,6,7,8-tetrahydropyrido[3,4-d]pyrimidin-4(3H)-one], the EC50 in data set [1] was 1.44 µM. In the data set “in vitro”, it took 25.2 µM to reach half-maximal cytotoxicity (CC50 at 3 days).

`COc1ccc(CNc2nc3c(c(=O)n2-c2cc(OC)cc(S(C)(=O)=O)c2)CCN(C(=O)c2ccc(Cl)c(Cl)c2)C3)cc1` [Compound C87, 7-(3,4-dichlorobenzoyl)-3-[3-(methanesulfonyl)-5-methoxyphenyl]-2-{[(4-methoxyphenyl)methyl]amino}-5,6,7,8-tetrahydropyrido[3,4-d]pyrimidin-4(3H)-one]: in data set [1], the EC50 was found to be 1.55 µM. The CC50 at 3 days in the data set “in vitro” was over 50 µM.

For the molecule `COc1cc(-n2c(NC(C)C)nc3c(c2=O)CCN(C(=O)c2ccc(Cl)c(Cl)c2)C3)cc(S(C)(=O)=O)c1` [Compound C88, 7-(3,4-dichlorobenzoyl)-3-[3-(methanesulfonyl)-5-methoxyphenyl]-2-[(propan-2-yl)amino]-5,6,7,8-tetrahydropyrido[3,4-d]pyrimidin-4(3H)-one], the EC50 in data set [1] is 4.99 µM. In addition, in “in vitro”, the CC50 at 3 days is over 50 µM.

For `C=CCNc1nc2c(c(=O)n1CC=C)CCN(C(=O)c1ccc(Cl)c(Cl)c1)C2` [Compound C89, 7-(3,4-dichlorobenzoyl)-3-(prop-2-en-1-yl)-2-[(prop-2-en-1-yl)amino]-5,6,7,8-tetrahydropyrido[3,4-d]pyrimidin-4(3H)-one], the concentration for a half-maximal effect (EC50) in data set [1] came to 8.76 µM. Moreover, in the data set “in vitro”, the cytotoxic concentration (CC50) at 3 days is over 50 µM.

As for `COc1ccc(CN(CCCO)c2nc3c(c(=O)[nH]2)CCN(C(=O)c2ccc(Cl)c(Cl)c2)C3)cc1` [Compound C90, 7-(3,4-dichlorobenzoyl)-2-{(3-hydroxypropyl)[(4-methoxyphenyl)methyl]amino}-5,6,7,8-tetrahydropyrido[3,4-d]pyrimidin-4(3H)-one], the EC50 in data set [1] worked out at 8 µM. In addition, in “in vitro”, it took 21.2 µM to reach half-maximal cytotoxicity (CC50 at 3 days).

Regarding `COc1ccc(CN(CCO)c2nc3c(c(=O)[nH]2)CCN(C(=O)c2ccc(Cl)c(Cl)c2)C3)cc1` [Compound C91, 7-(3,4-dichlorobenzoyl)-2-{(2-hydroxyethyl)[(4-methoxyphenyl)methyl]amino}-5,6,7,8-tetrahydropyrido[3,4-d]pyrimidin-4(3H)-one], the EC50 in data set [1] was 8.92 µM. For the same molecule, the cytotoxic concentration (CC50) at 3 days in the data set “in vitro” is 22.2 µM.

In the case of `COc1ccc(C(CCO)Nc2nc3c(c(=O)[nH]2)CCN(C(=O)c2ccc(Cl)c(Cl)c2)C3)cc1` (stereo not drawn) [Compound C92, 7-(3,4-dichlorobenzoyl)-2-{[3-hydroxy-1-(4-methoxyphenyl)propyl]amino}-5,6,7,8-tetrahydropyrido[3,4-d]pyrimidin-4(3H)-one], the EC50 in data set [1] amounted to 7.09 µM. Half-maximal cytotoxicity in the data set “in vitro” (CC50 at 3 days) was put at 24.8 µM.

As to `COc1ccc(CNc2nc3c(c(=O)n2C2CCOCC2)CCN(C(=O)c2ccc(Cl)c(Cl)c2)C3)cc1` [Compound C93, 7-(3,4-dichlorobenzoyl)-2-{[(4-methoxyphenyl)methyl]amino}-3-(oxan-4-yl)-5,6,7,8-tetrahydropyrido[3,4-d]pyrimidin-4(3H)-one], the EC50 in data set [1] came to 1.73 µM. In the data set “in vitro”, this molecule gave a CC50 at 3 days of 32 µM.

In the case of `COc1ccc(CNc2nc3c(c(=O)[nH]2)CC(c2ccc(F)cc2)N(C(=O)c2ccc(Cl)c(Cl)c2)C3)cc1` (stereo not drawn) [Compound C94, 7-(3,4-dichlorobenzoyl)-6-(4-fluorophenyl)-2-{[(4-methoxyphenyl)methyl]amino}-5,6,7,8-tetrahydropyrido[3,4-d]pyrimidin-4(3H)-one], in data set [1], the EC50 came out at 0.77 µM. This molecule also displayed a CC50 at 3 days in the data set “in vitro” of over 50 µM.

For the molecule `COc1ccccc1-n1c(N)nc2c(c1=O)CC(C)N(C(=O)c1ccc(Cl)c(Cl)c1)C2` (stereo not drawn) [Compound C95, 2-amino-7-(3,4-dichlorobenzoyl)-3-(2-methoxyphenyl)-6-methyl-5,6,7,8-tetrahydropyrido[3,4-d]pyrimidin-4(3H)-one], the half-maximal effective concentration (EC50) in data set [1] was 1.02 µM. In addition, the 50% cytotoxic concentration (CC50) at 3 days in the data set “in vitro” was over 50 µM.

On to `COc1ccc(CNc2nc3c(c(=O)n2-c2cccnc2C)CCN(C(=O)c2ccc(Cl)c(Cl)c2)C3)cc1` [Compound C96, 7-(3,4-dichlorobenzoyl)-2-{[(4-methoxyphenyl)methyl]amino}-3-(2-methylpyridin-3-yl)-5,6,7,8-tetrahydropyrido[3,4-d]pyrimidin-4(3H)-one], for which, in data set [1], the half-maximal effective concentration (EC50) was found to be 0.65 µM. In “in vitro”, this molecule came in with a CC50 at 3 days of 24.3 µM.

For the molecule `CC(C)N(CCO)c1nc2c(c(=O)[nH]1)CCN(C(=O)c1ccc(Cl)c(Cl)c1)C2` [Compound C97, 7-(3,4-dichlorobenzoyl)-2-[(2-hydroxyethyl)(propan-2-yl)amino]-5,6,7,8-tetrahydropyrido[3,4-d]pyrimidin-4(3H)-one], the EC50 in data set [1] came out at 3.22 µM. The molecule further yielded a CC50 at 3 days in the data set “in vitro” of over 50 µM.

`O=C(c1ccc(Cl)c(Cl)c1)N1CCc2c(nc(NC(CO)CO)[nH]c2=O)C1` [Compound C98, 7-(3,4-dichlorobenzoyl)-2-[(1,3-dihydroxypropan-2-yl)amino]-5,6,7,8-tetrahydropyrido[3,4-d]pyrimidin-4(3H)-one]: the EC50 in data set [1] is 36.5 µM. The same molecule came in with a half-maximal cytotoxic concentration (CC50) at 3 days in the data set “in vitro” of over 50 µM.

As a reminder, the EC50 is the midpoint of the concentration-response curve. Usually CC50 stands for the concentration at which the toxic effect on the cells reaches its halfway point.
